Earlier results, collected in US11896953B2, “HLB copolymers” (Sigma-Aldrich Co. LLC, priority 2017, dated 2024).
Where two headings read alike, the source gives them in different places.

[1] = 20-analyte mix for extended screening (Table 22)
[2] = analytes of the six analyte preliminary screen (Table 18)

**Q.** Which “Log P” value [1] does the source give for `CCCCc1nc(Cl)c(CO)n1Cc1ccc(-c2ccccc2-c2nn[nH]n2)cc1` [Losartan] here?
**A.** 6.10

**Q.** Which “Log P” value [1] does the source give for `O=[N+]([O-])NC1=NCCN1Cc1ccc(Cl)nc1` [Imidacloprid] here?
**A.** 0.57

**Q.** Which “Log P” value [1] does the source give for `CN1[C@H]2CC[C@@H]1[C@@H](C(=O)O)[C@@H](OC(=O)c1ccccc1)C2` [Benzoylecgonine] here?
**A.** 1.71

**Q.** For `Cc1ccnc2c1NC(=O)c1cccnc1N2C1CC1` [Nevirapine], which “Log P” value [1] is on record?
**A.** 2.50

**Q.** Which “Log P” value [1] does the source give for `CNC(=C[N+](=O)[O-])NCCSCc1csc(CN(C)C)n1` [Nizatidine] here?
**A.** 1.10

**Q.** With `CN1CCCCC1CCN1c2ccccc2Sc2ccc([S+](C)[O-])cc21` (centres unmarked) [Mesoridazine] as the compound, how does the “Log P” value [1] read?
**A.** 3.90

**Q.** For `CN1CCN2c3ncccc3Cc3ccccc3C2C1` (centres unmarked) [Mirtazapine], which “Log P” value [1] is on record?
**A.** 2.90

**Q.** Which “Log P” value [1] does the source give for `CC[C@H]1OC(=O)[C@H](C)[C@@H](O[C@H]2C[C@@](C)(OC)[C@@H](O)[C@H](C)O2)[C@H](C)[C@@H](O[C@@H]2O[C@H](C)C[C@H](N(C)C)[C@H]2O)[C@](C)(OC)C[C@@H](C)C(=O)[C@H](C)[C@@H](O)[C@]1(C)O` [Clarithromycin] here?
**A.** 3.16

**Q.** For `CN1CCN2c3ccccc3Cc3ccccc3C2C1` (centres unmarked) [Mianserin], which “Log P” value [1] is on record?
**A.** 3.52

**Q.** With `Cc1ccc(C(N)=O)cc1` [p-Toluamide] as the compound, how does the “Log P” value [2] read?
**A.** 1.2

**Q.** With `Oc1ccc2ccc(O)cc2c1` [2,7-dihydroxynaphthalene] as the compound, how does the “Log P” value [2] read?
**A.** 2.3

**Q.** For `CN(C)CCC=C1c2ccccc2CCc2ccccc21` [Amitriptyline], which “Log P” value [1] is on record?
**A.** 5.10

**Q.** Which “Log P” value (eight analytes of the 3-step protocol evaluations (Table 25)) does the source give for `CNCCCC1c2ccccc2C=Cc2ccccc21` [Protriptyline] here?
**A.** 4.70

**Q.** Which “Log P” value [1] does the source give for `N=C(N)NC(=O)c1nc(Cl)c(N)nc1N` [Amiloride] here?
**A.** −0.30

**Q.** With `CN(C)CCN(Cc1cccs1)c1ccccn1` [Methapyrilene] as the compound, how does the “Log P” value [1] read?
**A.** 2.87

**Q.** Which “log P” value (hydrophilic monomers) does the source give for `C=CC#N` [acrylonitrile] here?
**A.** 0.25

**Q.** For `CCc1nn(CCCN2CCN(c3cccc(Cl)c3)CC2)c(=O)n1CCOc1ccccc1` [Nefazodone], which “Log P” value [1] is on record?
**A.** 4.70
